Read-outs that look alike come from different tables or passages of the source.
Experiments:
[1] = test system: SARS-CoV-2; assay: Anti-SARS-CoV-2 activity in HAE-ALI culture; assay type: cell-based; conditions: Severe acute respiratory syndrome coronavirus 2; HAE air-liquid interface
[2] = assay type: in vitro ADME; conditions: 10 μM
Procedure: An aliquot of 450 μL of human, mouse or hamster plasma were exposed to 10 μM of compound and incubated at 37° C. At 0, 5, 15, 30, 60, 90 and 120 min, 50 μL of plasma sample was mixed with 200 μL of ice-cold methanol (70%). 50 μL supernatant was dried and reconstituted in 100 μL H2O. Propantheline bromide was used as positive control. The supernatant was then subjected to LC-MS analysis (LC-MS condition: Instrument: Thermo TSQ Quantiva. Column: Kinetex […] (50×2.1 mm, […]). LC buffers: A): 0.1% formic acid, and B): acetonitrile. MRM methods: (269.2-112 positive), Indinavir (IS, 614.4-421.2 positive, IS)). The stability results are shown in FIGS. 2-4 (human plasma, mouse plasma and hamster plasma, respectively). Compound A is stable in human and mouse plasma up to 2 hours and stable up to […] in hamster plasma. Compound 23 was converted to compound A in hamster plasma in less than 5 min.

[3] = Single dose range-finding study in Golden Syrian hamsters; assay type: in vivo; conditions: for Notes (clinical observations): hamster, in vivo, ip
Procedure: 3 male Syrian hamsters were injected intraperitoneally with a Compound A starting at 5 mg/kg at time 0 with […] administered every 30 minutes upto a final 80 mg/kg. Clinical observations of toxicity were recorded.

For N#C[C@@]1(n2ccc(N)nc2=O)O[C@H](CO)[C@@H](O)[C@H]1O [Compound A, (2R,3R,4S,5R)-2-(4-amino-2-oxopyrimidin-1(2H)-yl)-3,4-dihydroxy-5-(hydroxymethyl)-tetrahydrofuran-2-carbonitrile], the EC50 [1] was 400 nM, the EC90 [1] was 1600 nM and the “stable in plasma up to” value ([2]; hamster) was “up to 24 h”. The “stable in plasma up to” value ([2]; human) was “up to 2 hours”, the “stable in plasma up to” value ([2]; mouse) was “up to 2 hours” and the signs of toxicity ([3]; IP injection, total dose of 80 mg/kg, hamsters) was “no signs of toxicity”. For the same compound, the “Notes (clinical observations)” value ([3]; 55 mg/kg) was “B.A.R.* No sign of discomfort” and the “Notes (clinical observations)” value ([3]; 80 mg/kg) was “B.A.R.* No sign of discomfort”.
